Reference: patent US8168650B2, “Therapeutic uses of bicyclic ligands of sigma 2 receptor” (priority 2006, dated 2012)

What was measured:
[1] = Toxicity in treated mice (serum biochemistry, immunohistochemistry)
Experimental: Female C57BL/6 mice (8-12 weeks old) were purchased from the NCI and acclimated for at least 1 week before tumor implantation. […] For the survival study, mice (N=10 per group) were treated with sigma-2 receptor ligand at the stated concentration or vehicle control once a day for 5 days.

Panc-02 tumor allografts = assay: In vivo apoptosis (FACS, active caspase-3) in tumor and organs of Panc-02 bearing mice
Experimental: Female C57BL/6 mice (8-12 weeks old) were purchased from the NCI and acclimated for at least 1 week before tumor implantation. All mice were injected in the right flank with 200 μl of a single cell suspension containing 1.0×10^6 Panc-02 cells. Treatment of the tumors started 2 weeks after tumor implantation when their size reached a mean diameter of 5-8 mm. To evaluate the effect of sigma-2 receptor ligands both systemically and on tumor in vivo, several mice were sacrificed after a single treatment. Necropsy was performed and single cell suspensions were prepared from retrieved organs. The extent of apoptosis in these cells was measured by FACS (described above).

SMILES: COc1ccc(C)cc1NC(=O)O[C@H]1C[C@H]2CCC[C@@H](C1)N2Cc1ccc(N(C)C)cc1 [WC-II-26]
- acute, systemic toxicity based on blood chemistry parameters ([1]; 50 or 100 mg/kg once a day for five days): no acute, systemic toxicity
- acute toxicity on immunohistochemical evaluation of normal tissues ([1]; after WC26 treatment (data not shown)): no acute toxicity
- toxicity in serum biochemistry data ([1]; after systemic administration): no apparent toxicity
- effect on serum biochemistry at the highest dose tested ([1]; values still within reference ranges): elevated AST and depressed creatinine and glucose levels
- tumor cells active caspase-3 positive (Panc-02 tumor allografts; single 2 mg dose, Panc-02 tumor allografts, p<0.0001): up to 50%
- apoptosis in pancreas and livers (Panc-02 tumor allografts; systemic administration): < 10%
- apoptosis in brain, lung, kidney or spleen (active caspase-3, FACS) (Panc-02 tumor allografts; systemic administration, any of the concentrations tested): did not induce apoptosis
